The conditions of series [1]: data available from Dow Chemical on Dowicil 100; cited from earlier work.
The conditions of series [2]: data available from Dow Chemical on Dowicil 200; cited from earlier work.
A short description of a further series: Acute Oral LD50. The settings on record: in vivo, standard, accepted protocols. From the text: (§1) Both the acute oral LD50 and acute dermal LD50 tests were run in accordance with standard, accepted protocols.
The next series is described as follows: Acute Dermal LD50. The settings on record: in vivo, topical or ocular, standard, accepted protocols.
Excerpt: as §1

The subject of the next series is Pseudomonas aeruginosa. In words: antibacterial properties of latex paint inoculated with Pseudomonas aeruginosa (Example 4). Particulars: 3.6 grams adduct in vinyl acrylic paint. On the procedure: To a 1 gallon stainless steel beaker, equipped with a sheer type agitator, the following ingredients are charged in sequence:
This premix is then added to the above with agitation such that excessive air is not incorporated. To the above prepared combination is added 1,401 grams of a vinyl acrylic resin emulsion and mixed for a period of 10 minutes.
The resulting paint prepared above was examined for antibacterial properties by inoculating a portion with approximately 10^8 organisms per ml Pseudomonas aeruginosa. Paint samples returned to sterility within 24 hours of inoculation and maintained the same degree of preservation for periods in excess of 9 months, at which time the testing was discontinued.

The next series has as its system bacterial cultures. Nature of the series: microbial stability of oil-water hair dressing emulsion (Example 5). The settings on record: 0.2% adduct in oil-water hair dressing emulsion; after 6 months at 35° C. The protocol: The following is a formulation for an oil-water hair dressing emulsion: […]
Part A is heated to 75° C. and Part B is heated to 70° C. The test compound (Part C) is dissolved in Part B and the resulting solution added to Part A with good agitation. The mixture was perfumed 45° C. and agitated until cold.
The composition prepared above was tested for microbial stability for a period of 6 months and after 6 months at 35° C.

The subject of the next series is common forms of bacteria. Nature of the series: antimicrobial effectiveness in water-based systems, general statement. The settings on record: relative to suggested range 0.05% to 0.20%. The text has this: The two-to-one quaternary ammonium adduct of this invention is useful in the preparation and storage of systems susceptible to deterioration by microorganisms such as the common forms of bacteria. The exact concentration of the adduct during use is dependent upon a number of factors including duration of storage, temperature of storage, etc.

For series [3], the system named is gram positive and gram negative microorganisms. In words: antimicrobial spectrum, general statement. The text has this:
The two-to-one quaternary ammonium adduct of this invention is particularly useful as an antimicrobial agent in a wide variety of water-based systems such as latex paints, resin emulsions, joint cement, adhesives, dispersed pigments and dyes, and other similar aqueous compositions.

The nature of another series: water solubility. The series is classed as physicochemical.
A short description of another series: thermal decomposition. The series is classed as physicochemical.
Series [4] is described as follows: toxicological comparison with the one-to-one adducts (acute dermal and acute oral LD50). The series is classed as in vivo.
Excerpt: Additionally, the two-to-one adduct formed from hexamethylenetetramine and 3,4-dichlorobutene-1 according to this invention is less toxic than either the Frank or Wolf one-to-one adducts.
as §1

SMILES strings stand for the structures.

The term LD50 denotes the dose expected to kill half of the subjects tested. Low values mean greater toxicity, high ones lower toxicity.

As to `ClC=CC[N+]12CN3CN(CN(C3)C1)C2`, in [1], the “Acute Oral LD50” value is 745 mg/kg. Besides, in [2], the “Acute Dermal LD50” value is on record as 540 mg/kg.

Take `C(=CC[N+]12CN3CN(CN(C3)C1)C2)C[N+]12CN3CN(CN(C3)C1)C2` [1,1'-(but-2-enylene) bis(3,5,7-triaza-1-azoniaadamantane chloride)]: the LD50 in “Acute Oral LD50” turned out to be 3400 mg/kg; in “Acute Dermal LD50”, 8000 mg/kg. In addition, the “preservation of paint viscosity, stability and performance characteristics” value in the series on Pseudomonas aeruginosa was “maintained the viscosity, stability and performance characteristics of the paint”. Besides, the “time for paint samples to return to sterility after inoculation” value in the series on Pseudomonas aeruginosa (approximately 10^8 organisms per ml Pseudomonas aeruginosa) was at most 24 h. In addition, the “period for which the same degree of preservation was maintained” value in the series with Pseudomonas aeruginosa (testing then discontinued) is over 9 months. Also, in the series on bacterial cultures, the “resistance to bacterial contamination on inoculation with bacterial cultures” value is “still resistant to bacterial contamination”. Also, the “minimal inhibitory concentrations vis-a-vis the common bacteria” value with common forms of bacteria is on record as “much less than this suggested range”. Further, the effectiveness against microorganisms entry in series [3] is “effective against a broad spectrum of gram positive and gram negative microorganisms”. The water solubility entry in “water solubility” is “water-soluble”. The decomposition point entry in the series “thermal decomposition” is “about 130 °C”. The “toxicity relative to the Frank or Wolf one-to-one adducts” value in series [4] is “less toxic”.

With `ClCC=CC[N+]12CN3CN(CN(C3)C1)C2` [reference compound], the LD50 amounted to 1600 mg/kg in “Acute Oral LD50” and 2000 mg/kg in “Acute Dermal LD50”.

These data come from USRE29883E, “Antibacterial product” (Cosan Chemical Corporation, priority 1977, dated 1979).
